According to patent publication US20150119352A1, “DINUCELOSIDE POLYPHOSPHATES FOR THE TREATMENT OF PAIN” (GlobalAcorn Ltd., priority 2012, published 2015):
“Also recorded” adds a separate entry of the source.

Experiments:
[1] = molecular target: T1, rat homomeric P2X4 receptors (Rattus norvegicus, UniProt P51577); test: Whole-cell patch clamp, rat homomeric P2X4 receptors; assay type: cell-based; details: 1 μM; ATP
T1 construct: expressed in transfected cells
T1 sequence (P51577 1-388): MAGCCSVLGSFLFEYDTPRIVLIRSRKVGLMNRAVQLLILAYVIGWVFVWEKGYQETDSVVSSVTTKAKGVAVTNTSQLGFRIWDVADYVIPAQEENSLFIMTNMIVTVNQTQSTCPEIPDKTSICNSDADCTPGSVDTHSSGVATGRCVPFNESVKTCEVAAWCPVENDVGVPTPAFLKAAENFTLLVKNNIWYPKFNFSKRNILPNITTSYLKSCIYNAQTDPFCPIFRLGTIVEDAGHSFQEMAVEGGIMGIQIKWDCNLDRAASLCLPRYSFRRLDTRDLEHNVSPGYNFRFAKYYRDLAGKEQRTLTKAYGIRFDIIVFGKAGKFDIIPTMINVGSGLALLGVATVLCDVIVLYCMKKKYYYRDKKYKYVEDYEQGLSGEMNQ
Experimental: FIG. 4. […] A. Example traces of responses induced by 10 μM ATP applied for 2 s every 2 min to HEK cells expressing rat homomeric P2X2 receptors in the presence and absence of 1 μM AppNHppA. B. Comparison of currents induced by the full agonist of P2X2 receptors, ATP, in the presence of 1 μM AppNHppA (right) and absence (left). C. The time course of the current in the presence and absence of 1 μM AppNHppA. D. Comparison of currents induced by the full agonist of rat homomeric P2X4 and P2X7 receptors, ATP, in the presence of 1 μM AppNHppA (right) and absence (left). Experiments were performed as in FIG. 2.
(§1) Trigeminal, nodose, DRG neurons or HEK cells were recorded in the whole-cell configuration while being continuously superfused (at 2 mL/min) with control solution containing (in mM): 152 NaCl, 5 KCl, 1 MgCl2, 2 CaCl2, 10 glucose, and 10 HEPES; pH was adjusted to 7.4 with NaOH and osmolarity was adjusted to 320 mOsM with glucose. […] Responses to selective P2X3 receptor agonist α,β-methylene-ATP (α,β-meATP; resistant to ectoATPase hydrolysis, Sigma-Aldrich) were measured using an EPC-9 amplifier and HEKA Patch Master software (HEKA Electronik, Germany). Cells were voltage-clamped at −70 mV. In most cells, series resistance was compensated by 80%. […]

[2] = molecular target: T2, native P2X3 receptors, trigeminal ganglia (TG) neurons (Rattus norvegicus, UniProt P49654); test: α,β-meATP-induced currents in cultured trigeminal ganglia neurons; assay type: cell-based; details: read-out: inhibition (suppression) of the peak current
T2 construct: Modulation of Native P2X3 Receptors in Rat Cultured Sensory Neurons; endogenous in cells; host or cells: primary cultured rat trigeminal ganglion and dorsal root ganglion neurons
T2 sequence (P49654 1-397): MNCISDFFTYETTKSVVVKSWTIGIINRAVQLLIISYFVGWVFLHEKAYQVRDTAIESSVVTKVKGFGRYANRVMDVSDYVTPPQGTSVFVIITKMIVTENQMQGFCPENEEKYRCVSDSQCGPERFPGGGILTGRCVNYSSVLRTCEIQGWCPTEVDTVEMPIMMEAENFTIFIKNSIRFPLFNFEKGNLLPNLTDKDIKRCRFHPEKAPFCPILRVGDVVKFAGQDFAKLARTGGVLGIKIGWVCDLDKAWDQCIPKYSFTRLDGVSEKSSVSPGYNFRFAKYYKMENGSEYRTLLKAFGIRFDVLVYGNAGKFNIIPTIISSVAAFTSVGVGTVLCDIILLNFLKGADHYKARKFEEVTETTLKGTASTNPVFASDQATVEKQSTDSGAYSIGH
Experimental: (§2) Rat trigeminal (TG), nodose (NG) or dorsal root ganglion (DRG) neurons in culture were prepared as described previously (Sokolova et al., 2001; Simonetti et al., 2006). Neurons were plated on poly-L-lysine (0.2 mg/mL)-coated Petri dishes and cultured for 1 to 2 days under an atmosphere containing 5% CO2. Cells were used within 2 days of plating when they lacked processes. HEK293T cells were prepared as reported previously (Fabbretti et al., 2004; Sokolova et al., 2004) and transfected with rat full-length P2X3 cDNA subcloned into pIRES2-EGFP (Clontech, Mountain View, Calif., USA).
as §1
(§3) The peak amplitudes of the responses were measured using HEKA Patch Master software. […]

[3] = tested on: native P2X3 receptors, trigeminal ganglia (TG) neurons; test: as above; assay type: cell-based, rat; details: 1 μM, TG neurons
Experimental: as §2, §1, §3

[4] = tested on: native P2X3 receptors, nodose ganglia (NG) neurons; test: α,β-meATP-induced currents in cultured nodose ganglia neurons; assay type: cell-based, rat; details: 1 μM
Experimental: as §2, §1, §3

Nc1ncnc2c1ncn2[C@@H]1O[C@H](COP(=O)(O)OP(=O)(O)NP(=O)(O)OP(=O)(O)OC[C@H]2O[C@@H](n3cnc4c(N)ncnc43)C(O)C2O)C(O)C1O (stereo in doubt) [AppNHppA]
effect on P2X4 receptor-mediated currents [1]: not observed to produce any effects; also recorded: non-inhibitory effect
inhibition at 1 µM [2]: 80.3 ± 4.4%
inhibition of sustained residual component [3]: 15±6%
inhibition of sustained residual component [4]: 2±4%
inhibition (suppression) of the peak current ([4]; 10 μM α,β-meATP): 16.8±11.8%
